Consider one molecule from patent US12138398B2, “Methods and devices for providing a stimulus to a subject to induce gamma oscillations” (Massachusetts Institute of Technology, priority 2015, dated 2024).

“Also recorded” adds a separate entry of the source.

The test system of the assay is CK-p25 Tg mice. The assay can be described thus: Brain weight and lateral ventricle expansion in CK-p25 Tg mice. The format is in vivo, mouse. As to the method:
A study was conducted to examine the effect of gamma exposure and/or administration in accordance with some embodiments on DNA damage and neuronal loss in the visual cortex of a subject. For the study, an inducible mouse model of p25 accumulation (i.e., a creatine kinase carboxyl-terminal fragment p25 Tg mouse (CK-p25 Tg mouse)) was used. […] A study was conducted to compare groups of mice under different treatment regimens. FIG. 84 is a diagram of the groups including CK-control mice 8400, untreated CK-p25 Tg mice 8402, CK-p25 Tg mice treated with memantine (10 mg/kg daily) 8404, CK-p25 Tg mice exposed to the 40-Hz light flicker (one hour daily for 6 weeks) in accordance with some embodiments 8406, and CK-p25 Tg mice treated with memantine and also exposed to the 40-Hz light flicker 8408. Memantine is a medication used with limited success to treat severe AD by blocking NMDA receptors, thereby acting on the glutamatergic system. […] For example, gamma exposure reduced and/or prevented CKp-25-induced loss of brain weight. FIG. 85 is bar graph comparing brain weight change in CK-control mice, untreated CK-p25 Tg mice, CK-p25 Tg mice treated with memantine, CK-p25 Tg mice exposed to the 40-Hz light flicker in accordance with some embodiments, and CK-p25 Tg mice treated with both memantine and the 40-Hz light flicker. Brain weight loss was pronounced in untreated CK-p25 Tg mice, CK-p25 Tg mice treated with memantine, and CK-p25 Tg mice treated with both memantine and the 40-Hz light flicker. However, CK-p25 Tg mice exposed to the 40-Hz light flicker in accordance with some embodiments retained more brain weight. […] For example, gamma exposure reduced and/or prevented CKp-25-induced abnormal lateral ventricle expansion in subjects. FIG. 86 is bar graph comparing fold change of lateral ventricle expansion in CK-control mice, untreated CK-p25 Tg mice, CK-p25 Tg mice treated with memantine, CK-p25 Tg mice exposed to the 40-Hz light flicker in accordance with some embodiments, and CK-p25 Tg mice treated with both memantine and the 40-Hz light flicker with expansion in the CK-control mice as a baseline. Lateral ventricle expansion was pronounced in untreated CK-p25 Tg mice, CK-p25 Tg mice treated with memantine, and CK-p25 Tg mice treated with both memantine and the 40-Hz light flicker. Lateral ventricles in CK-p25 Tg mice exposed to the 40-Hz light flicker in accordance with some embodiments expanded much less than the lateral ventricles in the other CK-p25 Tg mice.

Where [1] appears, read: memantine + 40-Hz light flicker.

`CC12CC3CC(C)(C1)CC(N)(C3)C2` [memantine]: the Brain weight loss entry (memantine 10 mg/kg daily) was “pronounced” and the Brain weight loss entry under setting [1] is reported as “pronounced”. In addition, the Lateral ventricle expansion entry runs as follows: (memantine 10 mg/kg daily) “pronounced; also recorded: largest”; under setting [1], “pronounced; also recorded: largest”.
